Patent US12404241B2 (Celgene Corporation, priority 2018, dated 2025)

Molecular target: T1, AR (Homo sapiens, UniProt P10275)
T1 construct: endogenous in cells; host or cells: VCaP cells
T1 sequence (P10275 1-920): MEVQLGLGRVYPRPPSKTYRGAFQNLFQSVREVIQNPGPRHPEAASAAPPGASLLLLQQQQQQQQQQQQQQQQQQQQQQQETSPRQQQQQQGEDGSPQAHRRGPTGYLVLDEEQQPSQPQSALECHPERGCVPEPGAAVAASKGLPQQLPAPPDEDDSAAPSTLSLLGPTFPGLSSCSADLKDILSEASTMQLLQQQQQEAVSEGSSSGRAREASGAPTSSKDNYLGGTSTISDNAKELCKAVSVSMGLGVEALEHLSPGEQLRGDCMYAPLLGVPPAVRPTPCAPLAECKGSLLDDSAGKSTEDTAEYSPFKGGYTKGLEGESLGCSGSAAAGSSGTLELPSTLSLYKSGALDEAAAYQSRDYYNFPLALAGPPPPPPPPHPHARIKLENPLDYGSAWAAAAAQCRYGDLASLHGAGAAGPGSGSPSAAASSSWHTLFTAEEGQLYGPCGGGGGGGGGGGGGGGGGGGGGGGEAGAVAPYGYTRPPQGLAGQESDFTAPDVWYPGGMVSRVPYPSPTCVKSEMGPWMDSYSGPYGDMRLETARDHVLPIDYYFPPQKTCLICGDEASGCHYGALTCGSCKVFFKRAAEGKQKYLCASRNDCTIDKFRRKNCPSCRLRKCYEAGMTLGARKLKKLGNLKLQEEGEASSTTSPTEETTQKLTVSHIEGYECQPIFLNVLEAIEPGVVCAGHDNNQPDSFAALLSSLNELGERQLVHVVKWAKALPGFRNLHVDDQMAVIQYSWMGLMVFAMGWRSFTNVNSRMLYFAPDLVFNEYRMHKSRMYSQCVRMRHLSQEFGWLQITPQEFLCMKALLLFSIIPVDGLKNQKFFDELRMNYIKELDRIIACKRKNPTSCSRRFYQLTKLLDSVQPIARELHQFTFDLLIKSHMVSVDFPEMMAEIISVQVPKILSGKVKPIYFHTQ
Experiment: VCAP AR Degradation Assay
Format: cell-based
Settings: for Y (AR degradation efficiency, % of DMSO control): class symbols *; for DC50: class symbols A-C, read-out: DC50
Protocol: VCAP AR Degradation Assay. Test compounds were pre-dispensed into a Corning CellBind 96-well clear bottom plate (Cat #3300) using an acoustic dispenser to make a 10-point concentration series at 1:3 dilution for each compound. The final top concentration of each compound was 5 μM. DMSO at a final concentration of 0.1% was used as a control. VCaP cells cultured in DMEM with 8% fetal bovine serum (FBS) were seeded at 50K cells per well in a 200 μL volume into the compound plate and incubated at 37° C. in a CO2 incubator for 24 h. The medium was carefully removed from the cells and the plate was placed on ice. One hundred μL of ice-cold 1x cell lysis buffer from Cell Signaling Technologies (Cat #9803) was added to each well of the cells and the plate was incubated at 4° C. on a shaker for 1 h. Fifteen μL of cell lysate was used for AR ELISA detection using a PathScan Total Sandwich AR ELISA kit (Cell Signaling Technology, Cat #12580). AR levels in compound-treated wells were normalized to that of DMSO control and expressed as percent of control (PoC) (y). A Four Parameter Logistic Model (Sigmoidal Dose-Response Model) was used to determine the compound's DC50, and EC50, using the following equation:
[formula] • A=YMin (lowest AR level normalized to DMSO control in response to compound treatment, as determined by curve fit) • B=YMax (maximum AR level as determined by curve fit) • C=EC50 • D=Hill Slope • x=compound concentration • EC50=the concentration of compound when y=(YMax−YMin)/2 • DC50=the concentration of the compound when y=50% of DMSO control (50% AR degradation) • y=AR protein level normalized to DMSO control
The lowest measured AR level normalized to DMSO control in response to compound treatment, termed Y value, was used to characterize the compound-mediated AR degradation efficiency.

SMILES | Y (AR degradation efficiency, % of DMSO control) | DC50
C[C@@H]1CN(CCOc2ccc(N3C(=S)N(c4cnc(C#N)c(C(F)(F)F)c4)C(=O)C3(C)C)cc2C(C)(F)F)C[C@H](C)N1CC(=O)Nc1cc(C#N)cc(NC2CCC(=O)NC2=O)c1 (stereo partly drawn) [Example 258, N-(3-cyano-5-(2,6-dioxopiperidin-3-ylamino)phenyl)-2-((2S,6R)-4-(2-(4-(3-(6-cyano-5-(trifluoromethyl)pyridin-3-yl)-5,5-dimethyl-4-oxo-2-thioxoimidazolidin-1-yl)-2-(1,1-difluoroethyl)phenoxy)ethyl)-2.6-dimethylpiperazin-1-yl)acetamide] | * (0<Y<=25%) | < 100 nM
CC(C)c1cc(N2C(=S)N(c3ccc(C#N)c(C(F)(F)F)c3)C(=O)C2(C)C)ccc1OCCN1CCN(CC(=O)Nc2cccc(NC3CCC(=O)NC3=O)c2)[C@H](C(F)(F)F)C1 (stereo partly drawn) [Example 257, 2-((S)-4-(2-(4-(3-(4-cyano-3-(trifluoromethyl)phenyl)-5,5-dimethyl-4-oxo-2-thioxoimidazolidin-1-yl)-2-isopropylphenoxy)ethyl)-2-(trifluoromethyl)piperazin-1-yl)-N-(3-(2,6-dioxopiperidin-3-ylamino)phenyl)acetamide] | *** (35%<Y<50%) | 500 to 1000 nM
C[C@@H]1CN(CC(=O)Nc2cccc(NC3CCC(=O)NC3=O)c2)[C@H](C)CN1CCOc1ccc(N2C(=S)N(c3cnc(C#N)c(C(F)(F)F)c3)C(=O)C2(C)C)cc1C(C)(F)F (stereo partly drawn) [Example 244, 2-((2R,5R)-4-(2-(4-(3-(6-cyano-5-(trifluoromethyl)pyridin-3-yl)-5,5-dimethyl-4-oxo-2-thioxoimidazolidin-1-yl)-2-(1,1-difluoroethyl)phenoxy)ethyl)-2,5-dimethylpiperazin-1-yl)-N-(3-(2,6-dioxopiperidin-3-ylamino)phenyl)acetamide] | * (0<Y<=25%) | < 100 nM
CC(C)c1cc(N2C(=S)N(c3ccc(C#N)c(C(F)(F)F)c3)C(=O)C2(C)C)ccc1OCCN1CCN(CC(=O)Nc2cc(Cl)cc(NC3CCC(=O)NC3=O)c2)CC1 (centres unmarked) [Example 94, N-(3-chloro-5-(2,6-dioxopiperidin-3-ylamino)phenyl)-2-(4-(2-(4-(3-(4-cyano-3-(trifluoromethyl)phenyl)-5,5-dimethyl-4-oxo-2-thioxoimidazolidin-1-yl)-2-isopropylphenoxy)ethyl)piperazin-1-yl)acetamide] | ** (25%<Y<=35%) | 100 to 500 nM
CCc1cc(N2C(=S)N(c3ccc(C#N)c(C(F)(F)F)c3)C(=O)C2(C)C)c(C)cc1OCCN1C[C@@H](C)N(CC(=O)Nc2cccc(NC3CCC(=O)NC3=O)c2)[C@@H](C)C1 (stereo partly drawn) [Example 254, 2-((2S,6R)-4-(2-(4-(3-(4-cyano-3-(trifluoromethyl)phenyl)-5,5-dimethyl-4-oxo-2-thioxoimidazolidin-1-yl)-2-ethyl-5-methylphenoxy)ethyl)-2,6-dimethylpiperazin-1-yl)-N-(3-(2,6-dioxopiperidin-3-ylamino)phenyl)acetamide] | * (0<Y<=25%) | < 100 nM
C[C@@H]1CN(CCOc2ccc(N3C(=S)N(c4cnc(C#N)c(C(F)(F)F)c4)C(=O)C3(C)C)cc2C(C)(F)F)CCN1CC(=O)Nc1cc(Cl)cc(NC2CCC(=O)NC2=O)c1 (stereo partly drawn) [Example 149, N-(3-chloro-5-(2,6-dioxopiperidin-3-ylamino)phenyl)-2-((R)-4-(2-(4-(3-(6-cyano-5-(trifluoromethyl)pyridin-3-yl)-5,5-dimethyl-4-oxo-2-thioxoimidazolidin-1-yl)-2-(1,1-difluoroethyl)phenoxy)ethyl)-2-methylpiperazin-1-yl)acetamide] | * (0<Y<=25%) | < 100 nM
CC(C)c1cc(N2C(=S)N(c3cnc(C#N)c(C(F)(F)F)c3)C(=O)C2(C)C)ccc1OCCN1CCN(CC(=O)Nc2cccc(NC3CCC(=O)NC3=O)c2)[C@H](C)C1 (stereo partly drawn) [Example 163, 2-((R)-4-(2-(4-(3-(6-cyano-5-(trifluoromethyl)pyridin-3-yl)-5,5-dimethyl-4-oxo-2-thioxoimidazolidin-1-yl)-2-isopropylphenoxy)ethyl)-2-methylpiperazin-1-yl)-N-(3-(2,6-dioxopiperidin-3-ylamino)phenyl)acetamide] | * (0<Y<=25%) | 100 to 500 nM
CCc1cc(N2C(=S)N(c3ccc(C#N)c(C(F)(F)F)c3)C(=O)C2(C)C)ccc1OCCN1CCN(CC(=O)Nc2cccc(NC3CCC(=O)NC3=O)c2)[C@H](CO)C1 (some centres unmarked) [Example 50] | *** (35%<Y<50%) | 500 to 1000 nM
CC(C)c1cc(N2C(=S)N(c3ccc(C#N)c(Cl)c3)C(=O)C2(C)C)ccc1OCCN1C[C@@H](C)N(CC(=O)Nc2cc(Cl)cc(NC3CCC(=O)NC3=O)c2)[C@@H](C)C1 (stereo partly drawn) [Example 223, 2-((2S,6R)-4-(2-(4-(3-(3-chloro-4-cyanophenyl)-5,5-dimethyl-4-oxo-2-thioxoimidazolidin-1-yl)-2-isopropylphenoxy)ethyl)-2,6-dimethylpiperazin-1-yl)-N-(3-chloro-5-(2,6-dioxopiperidin-3-ylamino)phenyl)acetamide] | ** (25%<Y<=35%) | 100 to 500 nM
CCc1cc(N2C(=S)N(c3ccc(C#N)c(C(F)(F)F)c3)C(=O)C2(C)C)ccc1OCCN1CCN(CC(=O)Nc2cc(C#N)cc(NC3CCC(=O)NC3=O)c2)[C@H](C)C1 (stereo partly drawn) [Example 154, 2-((R)-4-(2-(4-(3-(4-cyano-3-(trifluoromethyl)phenyl)-5,5-dimethyl-4-oxo-2-thioxoimidazolidin-1-yl)-2-ethylphenoxy)ethyl)-2-methylpiperazin-1-yl)-N-(3-cyano-5-(2,6-dioxopiperidin-3-ylamino)phenyl)acetamide] | * (0<Y<=25%) | < 100 nM
CCc1cc(N2C(=S)N(c3ccc(C#N)c(C(F)(F)F)c3)C(=O)C2(C)C)ccc1OCCN1CCN(CC(=O)Nc2cccc(NC3CCC(=O)NC3=O)c2)C2(CC2)C1 (centres unmarked) [Example 98, 2-(7-(2-(4-(3-(4-cyano-3-(trifluoromethyl)phenyl)-5,5-dimethyl-4-oxo-2-thioxoimidazolidin-1-yl)-2-ethylphenoxy)ethyl)-4,7-diazaspiro[2.5]octan-4-yl)-N-(3-(2,6-dioxopiperidin-3-ylamino)phenyl)acetamide] | ** (25%<Y<=35%) | < 100 nM
CC(O)c1cc(N2C(=S)N(c3cnc(C#N)c(C(F)(F)F)c3)C(=O)C2(C)C)ccc1OCCN1CCN(CC(=O)Nc2cc(Cl)cc(NC3CCC(=O)NC3=O)c2)CC1 (centres unmarked) [Example 92, N-(3-chloro-5-(2,6-dioxopiperidin-3-ylamino)phenyl)-2-(4-(2-(4-(3-(6-cyano-5-(trifluoromethyl)pyridin-3-yl)-5,5-dimethyl-4-oxo-2-thioxoimidazolidin-1-yl)-2-(1-hydroxyethyl)phenoxy)ethyl)piperazin-1-yl)acetamide] | *** (35%<Y<50%) | 100 to 500 nM
CCc1cc(N2C(=S)N(c3ccc(C#N)c(C(F)(F)F)c3)C(=O)C2(C)C)ccc1OCCN1C[C@H](C)N(CC(=O)Nc2cc(Cl)cc(NC3CCC(=O)NC3=O)c2)[C@@H](C)C1 (stereo partly drawn) [Example 147, N-(3-chloro-5-(2,6-dioxopiperidin-3-ylamino)phenyl)-2-((2S,6S)-4-(2-(4-(3-(4-cyano-3-(trifluoromethyl)phenyl)-5,5-dimethyl-4-oxo-2-thioxoimidazolidin-1-yl)-2-ethylphenoxy)ethyl)-2,6-dimethylpiperazin-1-yl)acetamide] | * (0<Y<=25%) | < 100 nM
